Assay: Study HDP-CDV-201: safety and tolerability (adverse events, laboratory abnormalities, discontinuations)
Format: in vivo, human (adult allogeneic HSCT recipients)
Details: any time during therapy
Method: Clinical Studies of HDP-CDV were performed and described in detail in the following Examples. For example, HDP-CDV-201 is a placebo-controlled, dose-escalating trial in HSCT CMV (R+) recipients, evaluating the ability of HDP-CDV to prevent or control CMV infection was carried out. Five cohorts were established in which participants or subjects received either placebo or the HDP-CDV orally, in doses ranging from 40 mg weekly (QW) to 200 mg twice weekly (BIW). Subjects who were post-HSCT were enrolled at the time of engraftment and randomized to HDP-CDV or placebo (3 to 1 ratio) and received blinded therapy until approximately 100 day post-transplantation. HDP-CDV doses were 40 mg QW, 100 mg QW, 200 mg QW, 200 mg BIW and 100 mg BIW. Escalation to the next dose was decided by the data monitoring committee after review of the safety data from the previous Cohort. Subjects who developed CMV disease or CMV infection requiring pre-emptive therapy with local standard of care were discontinued from blinded therapy and followed for 4 weeks. Subjects who completed treatment with blinded therapy were followed for 8 weeks post-therapy.
Data from Study HDP-CDV-201 also provided characterization of the safety and tolerability profile of HDP-CDV when administered for the prevention or control of CMV infection in high risk (R^+) post-HSCT adult subjects.
The Safety population (SAFETY) included all randomized subjects who took at least one dose of study treatment. This population was used to summarize safety outcomes based on the treatment actually received, in cases where a subject was treated contrary to the randomization schedule.
The safety and tolerability profile of HDP-CDV, including subject demographics and Baseline characteristics; the AE profile; and laboratory abnormalities of interest were analyzed in the cohorts followed in this investigation.
Subjects completing the treatment period received a full course of study medication; those completing the entire study attended visits through 8 weeks of follow up. Subjects who discontinued treatment may have done so for protocol specified reasons (e.g. development of clinically significant CMV infection requiring preemptive treatment with excluded anti-CMV medications) or for other reasons (e.g., withdrawal, adverse events, loss to follow-up). The disposition of subjects in Study HDP-CDV-201 during the double-blind, placebo-controlled treatment period (through Week 11) is listed by dosing Cohort in TABLE 23.
Adverse events were examined by severity to ensure that all safety signals were identified in this study population. Because of the frequency of events in HSCT recipients, particular attention was given to evaluation of Grade 3 […], 4 (severe), and 5 (fatal) adverse events.
Only those preferred terms for which at least one Grade 3 or higher event was experienced in any treatment group are listed. Cytomegalovirus-related AEs are excluded from this analysis.
HDP-CDV is a lipid conjugate of CDV. Because CDV is known to have adverse effects on renal function and bone marrow, decreased GFR and persistent neutropenia were identified as AEs of special interest. Key renal and hematological (TABLE 30) laboratory parameters were measured and listed below by Study HDP-CDV-201 treatment groups. TABLE 30 includes abnormal levels of serum creatinine, neutrophils, platelets, WBCs, and hemoglobin and includes data at Screening and during the treatment period.
A common metric for unit based dosing of medications is by weight (mg/kg). When the distribution of weights was examined for all subjects participating in the study, the median was 78 kg and the lower 25th percentile weight was approximately 65 kg, which translates to a cut-off of ˜3 mg/kg for a 200 mg total weekly dose. Based upon this approach, a cut-off of 3 mg/kg was used to assess the frequency of diarrhea and associated GI AEs reported for the subjects in Cohorts 3 or 4a (TABLE 40).

Question: For `CCCCCCCCCCCCCCCCOCCCOP(=O)(O)COC(CO)Cn1ccc(N)nc1=O` (centres unmarked) [HDP-CDV], which “Subjects with Neutrophils <0.5 GI/L” value (100 mg QW) is on record?
Answer: 3 (11.1%)

Question: And the “Subjects with Neutrophils <1.0-0.5 GI/L” value (100 mg QW)?
Answer: 2 (7.4%)

Question: And the “Subjects with Neutrophils <1.5-1 GI/L” value (100 mg QW)?
Answer: 9 (33.3%)

Question: What about the “Subjects with Neutrophils <LLN-1.5 GI/L” value (100 mg QW) of the same compound?
Answer: 1 (3.7%)

Question: And the “Subjects with Platelets <25 GI/L” value (100 mg QW)?
Answer: 4 (14.8%)

Question: What about the “Subjects with Platelets <50-25 GI/L” value (100 mg QW) of the same compound?
Answer: 6 (22.2%)

Question: And the “Subjects with Platelets <75-50 GI/L” value (100 mg QW)?
Answer: 6 (22.2%)

Question: And the “Subjects with Platelets <LLN-75 GI/L” value (100 mg QW)?
Answer: 7 (25.9%)

Question: And the “Subjects with Serum Creatinine >1 × ULN-[…] ULN” value (100 mg QW)?
Answer: 16 (59.3%)

Question: What about the “Subjects with Serum Creatinine >3 × ULN-6 × ULN” value (100 mg QW) of the same compound?
Answer: 0

Question: What about the “Subjects with Serum Creatinine >6 × ULN” value (100 mg QW) of the same compound?
Answer: 0

Question: And the “Subjects with Serum Creatinine >[…] ULN-3 × ULN” value (100 mg QW)?
Answer: 5 (18.5%)

Question: And the “Subjects with WBC <1 GI/L” value (100 mg QW)?
Answer: 3 (11.1%)

Question: And the “Subjects with WBC <2-1 GI/L” value (100 mg QW)?
Answer: 4 (14.8%)

Question: What about the “Subjects with WBC <3-2 GI/L” value (100 mg QW) of the same compound?
Answer: 6 (22.2%)

Question: And the “Subjects with WBC <LLN-3 GI/L” value (100 mg QW)?
Answer: 4 (14.8%)

Question: What about the “Subjects with Hemoglobin <6.5 g/dL” value (200 mg BIW) of the same compound?
Answer: 0

Question: And the “Subjects with Hemoglobin <8-6.5 g/dL” value (200 mg BIW)?
Answer: 2 (7.1%)

Question: What about the “Subjects with Hemoglobin <10-8 g/dL” value (200 mg BIW) of the same compound?
Answer: 12 (42.9%)

Question: What about the “Subjects with Hemoglobin <LLN-10 g/dL” value (200 mg BIW) of the same compound?
Answer: 12 (42.9%)

Question: And the “Subjects with Neutrophils <0.5 GI/L” value (200 mg BIW)?
Answer: 0

Question: And the “Subjects with Neutrophils <1.0-0.5 GI/L” value (200 mg BIW)?
Answer: 4 (14.3%)

Question: What about the “Subjects with Neutrophils <1.5-1 GI/L” value (200 mg BIW) of the same compound?
Answer: 7 (25.0%)

Question: And the “Subjects with Neutrophils <LLN-1.5 GI/L” value (200 mg BIW)?
Answer: 3 (10.7%)

Question: And the “Subjects with Platelets <25 GI/L” value (200 mg BIW)?
Answer: 8 (28.6%)

Question: And the “Subjects with Platelets <50-25 GI/L” value (200 mg BIW)?
Answer: 8 (28.6%)

Question: What about the “Subjects with Platelets <75-50 GI/L” value (200 mg BIW) of the same compound?
Answer: 2 (7.1%)

Question: What about the “Subjects with Platelets <LLN-75 GI/L” value (200 mg BIW) of the same compound?
Answer: 6 (21.4%)

Question: And the “Subjects with Serum Creatinine >1 × ULN-[…] ULN” value (200 mg BIW)?
Answer: 11 (37.9%)

Question: What about the “Subjects with Serum Creatinine >3 × ULN-6 × ULN” value (200 mg BIW) of the same compound?
Answer: 0

Question: What about the “Subjects with Serum Creatinine >6 × ULN” value (200 mg BIW) of the same compound?
Answer: 0

Question: What about the “Subjects with Serum Creatinine >[…] ULN-3 × ULN” value (200 mg BIW) of the same compound?
Answer: 1 (3.4%)

Question: What about the “Subjects with WBC <1 GI/L” value (200 mg BIW) of the same compound?
Answer: 2 (7.1%)

Question: And the “Subjects with WBC <2-1 GI/L” value (200 mg BIW)?
Answer: 5 (17.9%)

Question: What about the “Subjects with WBC <3-2 GI/L” value (200 mg BIW) of the same compound?
Answer: 9 (32.1%)

Question: What about the “Subjects with WBC <LLN-3 GI/L” value (200 mg BIW) of the same compound?
Answer: 3 (10.7%)

Question: What about the “Subjects with Hemoglobin <6.5 g/dL” value (200 mg QW) of the same compound?
Answer: 0

Question: And the “Subjects with Hemoglobin <8-6.5 g/dL” value (200 mg QW)?
Answer: 5 (13.2%)

Question: And the “Subjects with Hemoglobin <10-8 g/dL” value (200 mg QW)?
Answer: 19 (50.0%)

Question: What about the “Subjects with Hemoglobin <LLN-10 g/dL” value (200 mg QW) of the same compound?
Answer: 13 (34.2%)

Question: And the “Subjects with Neutrophils <0.5 GI/L” value (200 mg QW)?
Answer: 2 (5.3%)

Question: And the “Subjects with Neutrophils <1.0-0.5 GI/L” value (200 mg QW)?
Answer: 7 (18.4%)

Question: And the “Subjects with Neutrophils <1.5-1 GI/L” value (200 mg QW)?
Answer: 11 (28.9%)

Question: And the “Subjects with Neutrophils <LLN-1.5 GI/L” value (200 mg QW)?
Answer: 1 (2.6%)

Question: What about the “Subjects with Platelets <25 GI/L” value (200 mg QW) of the same compound?
Answer: 7 (18.4%)

Question: And the “Subjects with Platelets <50-25 GI/L” value (200 mg QW)?
Answer: 13 (34.2%)

Question: And the “Subjects with Platelets <75-50 GI/L” value (200 mg QW)?
Answer: 7 (18.4%)

Question: What about the “Subjects with Platelets <LLN-75 GI/L” value (200 mg QW) of the same compound?
Answer: 7 (18.4%)

Question: What about the “Subjects with Serum Creatinine >1 × ULN-[…] ULN” value (200 mg QW) of the same compound?
Answer: 16 (42.1%)

Question: And the “Subjects with Serum Creatinine >3 × ULN-6 × ULN” value (200 mg QW)?
Answer: 0

Question: What about the “Subjects with Serum Creatinine >6 × ULN” value (200 mg QW) of the same compound?
Answer: 0

Question: What about the “Subjects with Serum Creatinine >[…] ULN-3 × ULN” value (200 mg QW) of the same compound?
Answer: 2 (5.3%)

Question: What about the “Subjects with WBC <1 GI/L” value (200 mg QW) of the same compound?
Answer: 1 (2.6%)

Question: What about the “Subjects with WBC <2-1 GI/L” value (200 mg QW) of the same compound?
Answer: 13 (34.2%)

Question: What about the “Subjects with WBC <3-2 GI/L” value (200 mg QW) of the same compound?
Answer: 7 (18.4%)

Question: What about the “Subjects with WBC <LLN-3 GI/L” value (200 mg QW) of the same compound?
Answer: 6 (15.8%)

Source: patent US20140303092A1 (CHIMERIX, INC., priority 2011, published 2014)
